Structures are written as SMILES.

For series [1], the system named is MCF7. The series can be described thus: Antiproliferative activity against human MCF7 cells assessed as inhibition of cell growth at 50 uM by MTT assay relative to control. Format: functional.
Series [2] deals with HCT-116. The series can be described thus: Antiproliferative activity against human HCT-116 cells assessed as inhibition of cell growth by MTT assay. (Formazan colour is commonly taken as a measure of viable cells.)
Series [3] has as its system HepG2. Description: Antiproliferative activity against human HepG2 cells assessed as inhibition of cell growth by MTT assay.
Series [4] in a line: Cytotoxicity in HaCaT cells assessed as inhibition of cell growth by MTT assay. Format: toxicity, cell-based. Particulars: human.
Series [5] is described as follows: Cytotoxicity in human MCF-10A cells assessed as inhibition of cell growth by MTT assay. Format: toxicity, cell-based.
For series [6], the system named is MCF7. Description: cells. Particulars: Homo sapiens, MCF7, 24 h.
Description: Antiproliferative activity against human MCF7 cells assessed as inhibition of cell growth incubated for 24 hrs by MTT assay
For series [7], the system named is MDA-MB-231. Description: cells. The conditions noted are these: Homo sapiens, MDA-MB-231, 24 h.
Description: Antiproliferative activity against human MDA-MB-231 cells assessed as inhibition of cell growth incubated for 24 hrs by MTT assay
Series [8] concerns T47D. The series can be described thus: cells. Particulars: Homo sapiens, 24 h.
Description: Antiproliferative activity against human T47D cells assessed as inhibition of cell growth incubated for 24 hrs by MTT assay
The target in series [9] is Nuclear receptor subfamily 4immunitygroup A member 1 (Homo sapiens, UniProt P22736). Description: Binding affinity to Nur77 LB domain (unknown origin) assessed as dissociation constant up to 100 uM by fluorescence titration assay.
Chain of Nuclear receptor subfamily 4immunitygroup A member 1 (P22736 whole entry, the tested form may be a part): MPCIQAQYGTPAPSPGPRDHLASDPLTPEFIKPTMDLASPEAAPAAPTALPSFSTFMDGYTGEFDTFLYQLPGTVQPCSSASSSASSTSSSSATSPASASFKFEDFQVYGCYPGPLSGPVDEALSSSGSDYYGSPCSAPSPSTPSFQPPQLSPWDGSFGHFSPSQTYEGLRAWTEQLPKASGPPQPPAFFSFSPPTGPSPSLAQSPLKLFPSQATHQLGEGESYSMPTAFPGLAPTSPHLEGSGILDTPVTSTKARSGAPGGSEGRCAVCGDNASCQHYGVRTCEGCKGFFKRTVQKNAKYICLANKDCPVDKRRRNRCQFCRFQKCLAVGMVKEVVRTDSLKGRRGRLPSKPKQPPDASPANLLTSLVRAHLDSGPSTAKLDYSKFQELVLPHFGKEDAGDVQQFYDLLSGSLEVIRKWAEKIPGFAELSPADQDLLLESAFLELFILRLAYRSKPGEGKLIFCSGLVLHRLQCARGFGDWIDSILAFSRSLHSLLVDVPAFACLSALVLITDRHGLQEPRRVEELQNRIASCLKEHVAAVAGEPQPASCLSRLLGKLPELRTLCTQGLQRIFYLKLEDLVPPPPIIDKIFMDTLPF

Consider `Cc1cc(C)cc(/C=N/NC(=O)c2cccc3ncccc23)c1`, for which the inhibition (usually the change of the read-out against control, counted positive when it falls) at 50 µM in series [1] was 68.5%.

As for `Cc1cc(C)cc(/C=N/NC(=O)c2ccc(NC(=O)Nc3ccc4ncccc4c3)cc2)c1`, the inhibition at 50 µM in series [1] was 19%.

Turning to `O=C(Nc1ccc(C(=O)N/N=C/c2cccc(Cl)c2)cc1)Nc1cccc2ncccc12`, the inhibition at 50 µM in series [1] was 76.2%. Moreover, the 50% inhibitory concentration (IC50) (as a rule, the point on the concentration scale where inhibition reaches its midpoint) is 10.7 µM in series [2]; 15.6 µM in [3]; > 50 µM in series [4]; > 50 µM in series [5]; 11.4 µM in series [6].

In the case of `Cc1ccc(/C=N/NC(=O)c2ccc3ncccc3c2)cc1`, the inhibition at 50 µM in [1] worked out at 76.8%. Besides, the half-inhibitory concentration (IC50) in [2] was determined as 25.3 µM; in [3], 28.1 µM; in series [4], 39.6 µM; in [5], 40.6 µM; in [6], 22.3 µM.

Regarding `COc1ccc(/C=N/NC(=O)c2ccc3ncccc3c2)cc1`, in [1], the inhibition at 50 µM was determined as 66.2%.

For the compound `O=C(Nc1ccc(C(=O)N/N=C/c2ccc(Cl)cc2)cc1)Nc1ccc2ncccc2c1`, the inhibition at 50 µM in series [1] stood at 66.4%.

As for `COc1cccc(/C=N/NC(=O)c2ccc(NC(=O)Nc3ccc4ncccc4c3)cc2)c1`, in series [1], the inhibition at 50 µM came to 1.99%.

With `COc1ccc(/C=N/NC(=O)c2ccc3ncccc3c2)c(O)c1`, in series [1], the inhibition at 50 µM was 71.2%.

For `O=C(Nc1ccc(C(=O)N/N=C/c2ccc(F)cc2F)cc1)Nc1cccc2ncccc12`, the inhibition at 50 µM in [1] was 73.3%.

With `O=C(Nc1ccc(C(=O)N/N=C/c2ccco2)cc1)Nc1ccc2ncccc2c1`, the inhibition at 50 µM in series [1] is 56.2%.

For the compound `O=C(N/N=C/c1cccc(Cl)c1)c1cccc2ncccc12`, the inhibition at 50 µM in series [1] turned out to be 56.9%.

Turning to `COc1ccc(/C=N/NC(=O)c2cccc3ncccc23)cc1`, the inhibition at 50 µM in [1] turned out to be 67.9%.

As for `O=C(N/N=C/c1ccc([N+](=O)[O-])cc1)c1ccc2ncccc2c1`, in [1], the inhibition at 50 µM turned out to be 63.2%.

As to `COc1ccc(/C=N/NC(=O)c2ccc(NC(=O)Nc3ccc4ncccc4c3)cc2)cc1`, the inhibition at 50 µM in series [1] is 37.7%.

In the case of `CC/C(=C(\c1ccccc1)c1ccc(OCCN(C)C)cc1)c1ccccc1` [TAMOXIFEN], the IC50 in [6] worked out at 7.68 µM; in series [7], 20.8 µM.

Take `O=C(N/N=C/c1cccs1)c1cccc2ncccc12`: the inhibition at 50 µM in series [1] came to 45.7%.

For the compound `O=C(Nc1ccc(C(=O)N/N=C/c2ccc(Cl)cc2Cl)cc1)Nc1cccc2ncccc12`, in series [1], the inhibition at 50 µM turned out to be 74.6%.

Consider `CC(C)c1ccc(/C=N/NC(=O)c2ccc(NC(=O)Nc3cccc4ncccc34)cc2)cc1`, for which the inhibition at 50 µM in series [1] stood at 65.9%.

Consider `Cc1cc(C)cc(/C=N/NC(=O)c2ccc3ncccc3c2)c1`, for which the inhibition at 50 µM in series [1] came to 55.2%.

As to `O=C(Nc1ccc(C(=O)N/N=C/c2cc(Cl)ccc2Cl)cc1)Nc1ccc2ncccc2c1`, in series [1], the inhibition at 50 µM was determined as 75.7%. The IC50 in series [2] is 8.24 µM; in [3], 9.25 µM; in series [4], 40.1 µM; in series [5], > 50 µM; in series [6], 4.77 µM; in series [8], 8.71 µM.

As for `Cc1cccc(/C=N/NC(=O)c2ccc3ncccc3c2)c1`, the inhibition at 50 µM in [1] worked out at 50.1%.

Turning to `CCC/C=N/NC(=O)c1ccc(NC(=O)Nc2ccc3ncccc3c2)cc1`, the inhibition at 50 µM in series [1] was determined as 46.6%.

Regarding `Cc1cccc(/C=N/NC(=O)c2ccc(NC(=O)Nc3cccc4ncccc34)cc2)c1`, the inhibition at 50 µM in series [1] came to 68.6%.

Consider `O=C(Nc1ccc(C(=O)N/N=C/c2cc(Cl)nc3ccccc23)cc1)Nc1ccc2ncccc2c1`, for which the inhibition at 50 µM in series [1] was 65.4%.

`CCCCCCCC(=O)c1c(O)cc(O)cc1CC(=O)OCC` [CYTOSPORONE B]: the Kd (commonly the concentration at which binding is half-saturated) in series [9] is 15.3 µM.

With `O=C(N/N=C/c1ccc(F)cc1)c1ccc2ncccc2c1`, the inhibition at 50 µM in [1] was 60.1%.

Consider `O=C(O)c1ccc(/C=N/NC(=O)c2ccc3ncccc3c2)cc1`, for which the inhibition at 50 µM in series [1] came to 48%.

`O=C(N/N=C/c1cc(Cl)nc2ccccc12)c1ccc2ncccc2c1`: the inhibition at 50 µM in series [1] was 44.1%.

With `Cc1ccccc1/C=N/NC(=O)c1cccc2ncccc12`, the inhibition at 50 µM in [1] came out at 65.3%.

As to `CCC/C=N/NC(=O)c1cccc2ncccc12`, in [1], the inhibition at 50 µM stood at 79.2%. Moreover, the IC50 in series [2] amounted to 2.19 µM; in series [3], 2.75 µM; in [4], 45.7 µM; in [5], 39.5 µM; in series [6] it was 6.83 µM.

As to `O=C(N/N=C/c1cc(Cl)ccc1Cl)c1ccc2ncccc2c1`, in [1], the inhibition at 50 µM turned out to be 64.7%.

In the case of `CCOc1ccccc1-n1c(C(C)N2CCN(C(=O)COc3ccc(Cl)cc3)CC2)nc2ccccc2c1=O` (stereo not given) [ERASTIN], the half-inhibitory concentration (IC50) in series [2] is > 30 µM; in series [3], > 30 µM; in [6], 20.2 µM.

Turning to `COc1cccc(/C=N/NC(=O)c2ccc(NC(=O)Nc3cccc4ncccc34)cc2)c1`, the inhibition at 50 µM in series [1] turned out to be 59%.

As to `O=C(N/N=C/c1ccco1)c1ccc2ncccc2c1`, in series [1], the inhibition at 50 µM came to 41.8%.

In the case of `Cc1ccc(F)cc1/C=N/NC(=O)c1ccc(NC(=O)Nc2cccc3ncccc23)cc1`, the inhibition at 50 µM in series [1] is 68.3%.

Turning to `COc1ccc(/C=N/NC(=O)c2ccc(NC(=O)Nc3ccc4ncccc4c3)cc2)cc1OC`, the inhibition at 50 µM in series [1] is 1.26%.

On to `O=C(N/N=C/c1ccc(Cl)cc1)c1ccc2ncccc2c1`, for which the inhibition at 50 µM in [1] is 79%. The concentration for half-maximal inhibition (IC50) in [2] was 22.9 µM; in series [3], 13.9 µM; in series [4], > 50 µM; in series [5], > 50 µM; in [6], 17.4 µM.

In the case of `O=C(N/N=C/c1ccco1)c1cccc2ncccc12`, the inhibition at 50 µM in series [1] is 50.9%.

In the case of `Cc1cccc(/C=N/NC(=O)c2ccc(NC(=O)Nc3ccc4ncccc4c3)cc2)c1`, in series [1], the inhibition at 50 µM amounted to 68.2%.

On to `COc1cc(/C=N/NC(=O)c2ccc(NC(=O)Nc3ccc4ncccc4c3)cc2)cc(OC)c1`, for which the inhibition at 50 µM in series [1] amounted to 56.4%.

`Cc1ccc(F)cc1/C=N/NC(=O)c1ccc2ncccc2c1`: in [1], the inhibition at 50 µM was determined as 73.5%.

With `O=C(Nc1ccc(C(=O)N/N=C/c2c[nH]c3ccccc23)cc1)Nc1cccc2ncccc12`, the inhibition at 50 µM in [1] stood at 30.2%.

`O=C(Nc1ccc(C(=O)N/N=C/c2ccc(Cl)cc2Cl)cc1)Nc1ccc2ncccc2c1`: the inhibition at 50 µM in [1] was determined as 70.2%.

On to `O=C(N/N=C/c1ccnc2ccccc12)c1ccc2ncccc2c1`, for which the inhibition at 50 µM in [1] stood at 55.3%.

Consider `COc1ccc(/C=N/NC(=O)c2ccc(NC(=O)Nc3ccc4ncccc4c3)cc2)c(O)c1`, for which the inhibition at 50 µM in series [1] was found to be 1.01%.

`O=C(N/N=C/c1cccs1)c1ccc2ncccc2c1`: the inhibition at 50 µM in series [1] was 64.9%.

Take `O=C(Nc1ccc(C(=O)N/N=C/c2ccc(F)cc2F)cc1)Nc1ccc2ncccc2c1`: the inhibition at 50 µM in [1] is 23.2%.

Take `O=C(Nc1ccc(C(=O)N/N=C/c2cccs2)cc1)Nc1ccc2ncccc2c1`: the inhibition at 50 µM in [1] amounted to 15.1%.

Consider `Cc1ccc(/C=N/NC(=O)c2cccc3ncccc23)cc1`, for which the inhibition at 50 µM in series [1] is 60.5%.

For `CCC/C=N/NC(=O)c1ccc2ncccc2c1`, the inhibition at 50 µM in series [1] came out at 65.1%.

`O=C(Nc1ccc(C(=O)N/N=C/c2ccnc3ccccc23)cc1)Nc1ccc2ncccc2c1`: the inhibition at 50 µM in series [1] was determined as 1.11%.

Turning to `COc1ccc(/C=N/NC(=O)c2ccc(NC(=O)Nc3cccc4ncccc34)cc2)cc1`, the inhibition at 50 µM in series [1] worked out at 72.3%.

For `O=C(N/N=C/c1ccccc1)c1ccc2ncccc2c1`, the inhibition at 50 µM in series [1] turned out to be 64.9%.

For `O=C(N/N=C/c1ccccc1)c1cccc2ncccc12`, the inhibition at 50 µM in series [1] came to 69.3%.

On to `O=C(Nc1ccc(C(=O)N/N=C/c2ccc(Cl)cc2)cc1)Nc1cccc2ncccc12`, for which the inhibition at 50 µM in series [1] came to 53.4%.

As to `O=C(N/N=C/c1ccc(F)cc1F)c1ccc2ncccc2c1`, the inhibition at 50 µM in series [1] is 70.8%.

These data come from ChEMBL document CHEMBL6182894, “Design, synthesis, and biological evaluation of quinolinyl-ureido-phenyl-hydrazide derivatives and quinolinyl-hydrazide derivatives as anticancer agents targeting Nur77-mediated ferroptosis” (Eur J Med Chem, 2025).
